Here are results for 49 molecules from the Kinase Knowledgebase extract (Sharma et al. 2016).

pIC50: −log10 of the molar value.

The target of the first test is CDK2 (UniProt P24941). As to the kind of experiment: Enzyme Assay.
Conditions: not given
Take `CCC(O)C#Cc1cccc2c1/C(=C/c1[nH]ccc1OC)C(=O)N2` (configuration not stated): the pIC50 was above 5.40.

`COCC#Cc1cccc2c1/C(=C/c1[nH]ccc1OC)C(=O)N2` gave a pIC50 above 5.40.

`CNCC#Cc1cccc2c1/C(=C/c1[nH]ccc1OC)C(=O)N2` showed a pIC50 above 5.40.

On to `C#CCOCCO`, for which the pIC50 is above 5.40.

`COc1cc[nH]c1/C=C1\C(=O)Nc2cccc(C#CC3(O)CCCC3)c21` gave a pIC50 above 5.40.

As for `Cc1nc[nH]c1/C=C1\C(=O)Nc2ccc(F)c(C#CCO)c21`, the pIC50 was above 5.40.

Turning to `COc1cc[nH]c1/C=C1\C(=O)Nc2ccc(NC(=O)Cc3cccs3)c(C#CCCC(=O)O)c21`, the pIC50 is above 5.40.

Regarding `COc1cc[nH]c1/C=C1\C(=O)Nc2cccc(C#CCCC(N)=O)c21`, the pIC50 is above 5.40.

The molecule `COc1cc[nH]c1/C=C1\C(=O)Nc2cccc(C#CCOC(N)=O)c21` gave a pIC50 above 5.40.

`COC(=O)C(CC#Cc1cccc2c1/C(=C/c1[nH]ccc1OC)C(=O)N2)C(=O)OC` gave a pIC50 above 5.40.

In turn, `COC(=O)NCC#Cc1cccc2c1/C(=C/c1[nH]ccc1OC)C(=O)N2` gave a pIC50 above 5.40.

In turn, `Cc1nc[nH]c1/C=C1\C(=O)Nc2ccc(F)c(C#CCOC(N)=O)c21` gave a pIC50 above 5.40.

`CCCCC[C@H](O)C#Cc1cccc2c1/C(=C/c1[nH]ccc1OC)C(=O)N2` gave a pIC50 above 5.40.

Take `COc1cc[nH]c1/C=C1\C(=O)Nc2cccc(C#CCC(C(=O)O)C(=O)O)c21`: the pIC50 was above 5.40.

As for `COc1cc[nH]c1/C=C1\C(=O)Nc2cccc(C#CCNCc3ccccc3)c21`, the pIC50 was above 5.40.

Regarding `CCN(CC)CC#Cc1c(F)ccc2c1/C(=C/c1[nH]cnc1C)C(=O)N2`, the pIC50 was above 5.40.

As to `CCOC(=O)C(CC#Cc1c(F)ccc2c1/C(=C/c1[nH]cnc1C)C(=O)N2)NC(C)=O` (configuration not stated), the pIC50 was above 5.40.

Molecule `COc1cc[nH]c1/C=C1\C(=O)Nc2cccc(C#CC(C)(C)O)c21` gave a pIC50 above 5.40.

In turn, `COc1cc[nH]c1/C=C1\C(=O)Nc2cccc(C#CCCCO)c21` had a pIC50 above 5.40.

`COc1cc[nH]c1/C=C1\C(=O)Nc2cccc(C#CCCCC(=O)O)c21`: the pIC50 was above 5.40.

`Cc1nc[nH]c1/C=C1\C(=O)Nc2ccc(F)c(C#CCN(C)C)c21`: the pIC50 is above 5.40.

For `COC(=O)CCCC#Cc1cccc2c1/C(=C/c1[nH]ccc1OC)C(=O)N2`, the pIC50 was above 5.40.

Take `COc1cc[nH]c1/C=C1\C(=O)Nc2cccc(C#CC3(O)CCCCC3)c21`: the pIC50 is above 5.40.

Molecule `CCC(C)(O)C#Cc1cccc2c1/C(=C/c1[nH]ccc1OC)C(=O)N2` (configuration not stated) gave a pIC50 above 5.40.

Take `COC(=O)CCC#Cc1cccc2c1/C(=C/c1[nH]ccc1OC)C(=O)N2`: the pIC50 is above 5.40.

The molecule `COc1cc[nH]c1/C=C1\C(=O)Nc2cccc(C#CCN)c21` showed a pIC50 above 5.40.

Regarding `COc1cc[nH]c1/C=C1\C(=O)Nc2cccc(C#CCCCCO)c21`, the pIC50 was above 5.40.

Regarding `CCC(O)C#Cc1c(F)ccc2c1/C(=C/c1[nH]cnc1C)C(=O)N2` (configuration not stated), the pIC50 is above 5.40.

Molecule `CCCCCC(O)C#Cc1cccc2c1/C(=C/c1[nH]ccc1OC)C(=O)N2` (configuration not stated) showed a pIC50 above 5.40.

As for `COc1cc[nH]c1/C=C1\C(=O)Nc2cccc(C#CCCC(=O)O)c21`, the pIC50 was above 5.40.

The molecule `Cc1nc[nH]c1/C=C1\C(=O)Nc2ccc(F)c(C#CCN3CCOCC3)c21` had a pIC50 above 5.40.

`COc1cc[nH]c1/C=C1\C(=O)Nc2ccc(NC(=O)c3ccncc3)c(C#CCO)c21` had a pIC50 above 5.40.

In the case of `COc1cc[nH]c1/C=C1\C(=O)Nc2cccc(C#CCCO)c21`, the pIC50 is above 5.40.

As for `CCCC(C)(O)C#Cc1cccc2c1/C(=C/c1[nH]ccc1OC)C(=O)N2` (configuration not stated), the pIC50 was above 5.40.

In the case of `COc1cc[nH]c1/C=C1\C(=O)Nc2cccc(C#CC(C)(O)CC(C)C)c21` (configuration not stated), the pIC50 was above 5.40.

Turning to `COC(=O)CCC#Cc1c(N)ccc2c1/C(=C/c1[nH]ccc1OC)C(=O)N2`, the pIC50 was above 5.40.

Regarding `COc1cc[nH]c1/C=C1\C(=O)Nc2cccc(C#CCO)c21`, the pIC50 is above 5.40.

For `Cc1nc[nH]c1/C=C1\C(=O)Nc2ccc(F)c(C#CCNC(N)=O)c21`, the pIC50 is above 5.40.

In turn, `COc1cc[nH]c1/C=C1\C(=O)Nc2cccc(C#CCCCC(N)=O)c21` showed a negative-log IC50 (pIC50) above 5.40.

`Cc1nc[nH]c1/C=C1\C(=O)Nc2ccc(F)c(C#CCC(C)O)c21` (configuration not stated) showed a pIC50 above 5.40.

As to `CCC(O)C#Cc1c([N+](=O)[O-])ccc2c1/C(=C/c1[nH]cnc1C)C(=O)N2` (configuration not stated), the pIC50 was above 5.40.

Take `Cc1nc[nH]c1/C=C1\C(=O)Nc2ccc(F)c(C#CC(C)(C)N)c21`: the pIC50 is above 5.40.

`COc1cc[nH]c1/C=C1\C(=O)Nc2ccc(N)c(C#CCO)c21` had a pIC50 above 5.40.

In turn, `CNCC#Cc1c(F)ccc2c1/C(=C/c1[nH]cnc1C)C(=O)N2` gave a pIC50 above 5.40.

For the molecule `CNC(=O)OCC#Cc1cccc2c1/C(=C/c1[nH]ccc1OC)C(=O)N2`, the pIC50 was above 5.40.

Staying with this test, now noted: concentration not given here.
Turning to `COC(=O)NCC#Cc1c(F)ccc2c1/C(=C/c1[nH]cnc1C)C(=O)N2`, the inhibition is above 90%.

Regarding `COC(=O)CCC#Cc1c([N+](=O)[O-])ccc2c1/C(=C/c1[nH]ccc1OC)C(=O)N2`, the inhibition was above 60%.

Molecule `COc1cc[nH]c1/C=C1\C(=O)Nc2ccc([N+](=O)[O-])c(C#CCO)c21` yielded an inhibition above 90%.

Another test concerns the target CDK2 (human) (UniProt P24941). Nature of the test: Cell-Based Assay. The note with it: mda-mb-435.
`COC(=O)NCC#Cc1c(F)ccc2c1/C(=C/c1[nH]cnc1C)C(=O)N2`: the pIC50 is above 5.46.

In the case of `CCOC(=O)C(CC#Cc1c(F)ccc2c1/C(=C/c1[nH]cnc1C)C(=O)N2)NC(C)=O` (configuration not stated), the pIC50 was above 5.46.

On to `CCC(O)C#Cc1c(F)ccc2c1/C(=C/c1[nH]cnc1C)C(=O)N2` (configuration not stated), for which the pIC50 was above 5.46.

`Cc1nc[nH]c1/C=C1\C(=O)Nc2ccc(F)c(C#CCC(C)O)c21` (configuration not stated) gave a pIC50 above 5.46.

`CCC(O)C#Cc1c([N+](=O)[O-])ccc2c1/C(=C/c1[nH]cnc1C)C(=O)N2` (configuration not stated) showed a pIC50 above 5.46.

Still in this test, the particulars now being: sw480.
In turn, `CCC(O)C#Cc1c(F)ccc2c1/C(=C/c1[nH]cnc1C)C(=O)N2` (configuration not stated) showed a pIC50 above 6.00.

Molecule `CCC(O)C#Cc1c([N+](=O)[O-])ccc2c1/C(=C/c1[nH]cnc1C)C(=O)N2` (configuration not stated) had a negative logarithm of the IC50 (pIC50) above 6.00.

`CNCC#Cc1c(F)ccc2c1/C(=C/c1[nH]cnc1C)C(=O)N2`: the pIC50 was above 6.00.

Molecule `CCC(N)(C#Cc1c(F)ccc2c1/C(=C/c1[nH]cnc1C)C(=O)N2)CC` showed a pIC50 above 6.00.
